Test results from patent publication US6391599B1, “Sham-sensitive terminal oxidase gene from xylose-fermenting yeast” (priority 2000, dated 2002).
Entries after “also recorded” stand apart in the source; their conditions may differ.

How the values were obtained:
Assay type in all cases: cell-based, Pichia stipitis
Set-up in all cases: key to Rotenone sensitivity (rotenone-insensitive respiration): +: Cells sustained rotenone-insensitive respiration; −: Cells could not sustain rotenone-insensitive respiration
[1] = tested on: P. stipitis FPL-Shi21 (cyc1-Δ); assay: Respiration measurement (oxygen uptake) with inhibitor; settings: for Effect on respiration: FPL-Shi21 (cyc1Δ); for Rotenone sensitivity (rotenone-insensitive respiration): 0.1 mM rotenone, FPL-Shi21; for Sensitivity of respiration to rotenone (in words): cyc1Δ mutant
Protocol: (§1) P. stipitis strains were grown overnight in YNBUP-xylose (2%) medium under aerobic conditions. Then half of the overnight-grown cells were transferred to 25 mL fresh medium to grow for 16 h to mid-log phase under the same conditions. The cells were harvested and washed in an assay buffer containing 20 mM potassium phosphate (pH7.0) and 5 mM magnesium chloride. The cells were resuspended in 500 μL of the same buffer for assays. Oxygen uptake was measured by using a Clark type of electrode (Yellow Spring Instrument). The assay was performed in an assay buffer containing 20 mM potassium phosphate, 5 mM magnesium chloride, plus xylose or glucose (2%) as the substrate at 30° C. The assay buffer was saturated with air before the experiment. Ten to fifty μL of cells were injected into the assay chamber and the total reaction volume was 2 mL. Antimycin A, SHAM or rotenone was dissolved in dimethyl formamide while potassium cyanide was dissolved in water. Inhibitor solution was injected into the chamber after adding the cells.

[2] = tested on: P. stipitis FPL-Shi31 (sto1-Δ); assay: as above; settings: for Rotenone sensitivity (rotenone-insensitive respiration): 0.1 mM rotenone, FPL-Shi31; for Sensitivity of respiration to rotenone (in words): sto1Δ mutant
Protocol: as §1

[3] = tested on: P. stipitis wild-type CBS 6054; assay: Respiration measurement (oxygen uptake, Clark type electrode) with inhibitor; settings: 0.1 mM rotenone
Protocol: as §1

[4] = tested on: P. stipitis FPL-UC7 (ura3-3); assay: Respiration measurement (oxygen uptake) with inhibitor; settings: for Rotenone sensitivity (rotenone-insensitive respiration): 0.1 mM rotenone
Protocol: as §1

`O=C(NO)c1ccccc1O` [SHAM, salicyl hydroxymate] was tested, and the Effect on respiration [1] was “completely blocked” and the “Effect on respiration trace” value ([2]; 4 mM SHAM, sto1Δ cells pre-grown on YNB-xylose (2%)) was “did not show any change”.

For antimycin A, the Effect on respiration [1] was “insensitivity” and the Effect on respiration ([2]; 10 μM antimycin A, sto1Δ mutant cells) was “respiration dropped to zero”.

With `C=C(C)[C@H]1Cc2c(ccc3c2O[C@@H]2COc4cc(OC)c(OC)cc4[C@@H]2C3=O)O1` [rotenone] the “Rotenone sensitivity (rotenone-insensitive respiration)” value (from here on “Rotenone sensitivity”) ([3]; glucose-grown cells, CBS 6054) was “−”, the “Sensitivity of respiration to rotenone (in words)” value (shortened to “Sensitivity of respiration”) ([3]; glucose-grown cells, CBS 6054) was “could not sustain any respiration; also recorded: rotenone-sensitive” and the “Time after injection until cells died and floated in the chamber” value ([3]; glucose-grown cells, CBS 6054) was at most 1 min. The “Oxygen consumption rate, +rotenone” value ([3]; xylose-grown cells) was 4.6 ± 0.2 µM/mg/h, the “Rotenone sensitivity” value ([3]; xylose-grown cells, CBS 6054) was “+” and the “Sensitivity of respiration” value ([3]; xylose-grown cells, CBS 6054) was “respiration was sustained; also recorded: insensitivity to rotenone”. For the same compound, the “Rotenone sensitivity” value ([1]; glucose-grown cells) was “−”, the “Rotenone sensitivity” value ([1]; xylose-grown cells) was “−” and the “Sensitivity of respiration” value ([1]; glucose-grown cells) was “rotenone-sensitive”. For the same compound, the “Sensitivity of respiration” value ([1]; xylose-grown cells) was “rotenone-sensitive”, the “Rotenone sensitivity” value ([4]; glucose-grown cells) was “−” and the “Rotenone sensitivity” value ([4]; xylose-grown cells) was “+”. The “Sensitivity of respiration” value ([4]; glucose-grown cells) was “rotenone-sensitive”, the “Sensitivity of respiration” value ([4]; xylose-grown cells) was “insensitivity to rotenone” and the “Rotenone sensitivity” value ([2]; glucose-grown cells) was “−”. For the same compound, the “Rotenone sensitivity” value ([2]; xylose-grown cells) was “−”, the “Sensitivity of respiration” value ([2]; glucose-grown cells) was “rotenone-sensitive” and the “Sensitivity of respiration” value ([2]; xylose-grown cells) was “rotenone-sensitive”.
